Assay results from PubChem BioAssay (NCI).
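Step 1: Grow cells in 96-well plates. Step 2: Expose to compound for 48 hours at 5 concentrations. Step 3: Interpolate endpoints linearly; if unreached, use highest concentration. TGI is the concentration that stops growth completely.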

Tests used:
Test in all cases: NCI anticancer screen, dose series, 48 h
786-0 renal = test system: 786-0 renal
A549 NSCLC = test system: A549 NSCLC
CAKI-1 renal = test system: CAKI-1 renal
CCRF-CEM leukemia = test system: CCRF-CEM leukemia
COLO 205 colon = test system: COLO 205 colon
DU-145 prostate = test system: DU-145 prostate
EKVX NSCLC = test system: EKVX NSCLC
HCC-2998 colon = test system: HCC-2998 colon
HCT-15 colon = test system: HCT-15 colon
HL-60(TB) leukemia = test system: HL-60(TB) leukemia
HOP-62 NSCLC = test system: HOP-62 NSCLC
HOP-92 NSCLC = test system: HOP-92 NSCLC
HT29 colon = test system: HT29 colon
IGROV1 ovarian = test system: IGROV1 ovarian
K-562 leukemia = test system: K-562 leukemia
KM12 colon = test system: KM12 colon
LOX IMVI melanoma = test system: LOX IMVI melanoma
M14 melanoma = test system: M14 melanoma
MALME-3M melanoma = test system: MALME-3M melanoma
MCF7 breast = test system: MCF7 breast
MDA-MB-231 breast = test system: MDA-MB-231 breast
MDA-MB-435 = test system: MDA-MB-435
MDA-N = test system: MDA-N
MOLT-4 leukemia = test system: MOLT-4 leukemia
NCI-H23 lung = test system: NCI-H23 lung
OVCAR-4 ovarian = test system: OVCAR-4 ovarian
OVCAR-8 ovarian = test system: OVCAR-8 ovarian
PC-3 prostate = test system: PC-3 prostate
RPMI-8226 leukemia = test system: RPMI-8226 leukemia
RXF 393 renal = test system: RXF 393 renal
SF-268 CNS = test system: SF-268 CNS
SF-295 CNS = test system: SF-295 CNS
SK-MEL-28 melanoma = test system: SK-MEL-28 melanoma
SK-MEL-5 melanoma = test system: SK-MEL-5 melanoma
SK-OV-3 ovarian = test system: SK-OV-3 ovarian
SN12C renal = test system: SN12C renal
SNB-75 CNS = test system: SNB-75 CNS
SR leukemia = test system: SR leukemia
SW-620 colon = test system: SW-620 colon
T-47D breast = test system: T-47D breast
TK-10 renal = test system: TK-10 renal
UACC-257 melanoma = test system: UACC-257 melanoma
UACC-62 melanoma = test system: UACC-62 melanoma

CCCC(=O)OC1=C(c2ccccc2)Sc2ccccc2-n2cccc21
TGI (786-0 renal): > 10 µM
TGI (A549 NSCLC): > 10 µM
TGI (CAKI-1 renal): > 10 µM
TGI (CCRF-CEM leukemia): > 10 µM
TGI (COLO 205 colon): > 10 µM
TGI (DU-145 prostate): > 10 µM
TGI (EKVX NSCLC): > 10 µM
TGI (HCC-2998 colon): > 10 µM
TGI (HCT-15 colon): > 10 µM
TGI (HL-60(TB) leukemia): > 10 µM
TGI (HOP-62 NSCLC): > 10 µM
TGI (HOP-92 NSCLC): > 10 µM
TGI (HT29 colon): > 10 µM
TGI (IGROV1 ovarian): > 10 µM
TGI (K-562 leukemia): > 10 µM
TGI (KM12 colon): > 10 µM
TGI (LOX IMVI melanoma): > 10 µM
TGI (M14 melanoma): > 10 µM
TGI (MALME-3M melanoma): > 10 µM
TGI (MCF7 breast): > 10 µM
TGI (MDA-MB-231 breast): > 10 µM
TGI (MDA-MB-435): > 10 µM
TGI (MDA-N): > 10 µM
TGI (MOLT-4 leukemia): > 10 µM
TGI (NCI-H23 lung): > 10 µM
TGI (OVCAR-4 ovarian): > 10 µM
TGI (OVCAR-8 ovarian): > 10 µM
TGI (PC-3 prostate): > 10 µM
TGI (RPMI-8226 leukemia): > 10 µM
TGI (RXF 393 renal): > 10 µM
TGI (SF-268 CNS): > 10 µM
TGI (SF-295 CNS): > 10 µM
TGI (SK-MEL-28 melanoma): > 10 µM
TGI (SK-MEL-5 melanoma): > 10 µM
TGI (SK-OV-3 ovarian): > 10 µM
TGI (SN12C renal): > 10 µM
TGI (SNB-75 CNS): > 10 µM
TGI (SR leukemia): > 10 µM
TGI (SW-620 colon): > 10 µM
TGI (T-47D breast): > 10 µM
TGI (TK-10 renal): > 10 µM
TGI (UACC-257 melanoma): > 10 µM
TGI (UACC-62 melanoma): > 10 µM

CC(=O)OC[C@]12CCC3[C@@]4(C)CCCC(C)(C)C4CC[C@@]3(C)C1CC(C1=CC(=O)OC1O)O2 (stereo partly specified)
TGI (786-0 renal): 1.83 µM
TGI (A549 NSCLC): 5.05 µM
TGI (CAKI-1 renal): 3.11 µM
TGI (CCRF-CEM leukemia): 0.982 µM
TGI (COLO 205 colon): 5.67 µM
TGI (EKVX NSCLC): 6.51 µM
TGI (HCC-2998 colon): 2.83 µM
TGI (HCT-15 colon): 1.98 µM
TGI (HL-60(TB) leukemia): 2.66 µM
TGI (HOP-62 NSCLC): 3.9 µM
TGI (IGROV1 ovarian): 2.95 µM
TGI (K-562 leukemia): 9.56 µM
TGI (KM12 colon): 3.62 µM
TGI (M14 melanoma): 3.07 µM
TGI (MCF7 breast): 2.97 µM
TGI (MDA-MB-231 breast): 3.12 µM
TGI (MDA-N): 2.42 µM
TGI (MOLT-4 leukemia): 0.633 µM
TGI (NCI-H23 lung): 3.8 µM
TGI (OVCAR-8 ovarian): 3.52 µM
TGI (PC-3 prostate): 2.68 µM
TGI (RPMI-8226 leukemia): 0.761 µM
TGI (RXF 393 renal): 1.55 µM
TGI (SF-268 CNS): 4.88 µM
TGI (SK-MEL-28 melanoma): 2.19 µM
TGI (SK-MEL-5 melanoma): 2.85 µM
TGI (SK-OV-3 ovarian): 4.04 µM
TGI (SNB-75 CNS): 3.91 µM
TGI (SR leukemia): 0.868 µM
TGI (SW-620 colon): 1.85 µM
TGI (T-47D breast): 3.79 µM
TGI (TK-10 renal): 3.2 µM
TGI (UACC-62 melanoma): 3.65 µM
